We go through 31 compounds from patent US9914736B2, “TrKA kinase inhibitors, compositions and methods thereof” (Merck Sharp & Dohme Corp., priority 2014, dated 2018).

This test has as its target human TrkA receptor (Homo sapiens (Human), UniProt P04629). As to the kind of experiment: DiscoverX PathHunter TrkA functional assay. To be noted: U2OS cells expressing human TrkA-ProLink, Shc1-EA and p75NTR; compound 1 h, then NGF at ~80% of maximal response for 3 h; luminescence. It is filed as cell-based.

Chain of human TrkA receptor (P04629 33-796): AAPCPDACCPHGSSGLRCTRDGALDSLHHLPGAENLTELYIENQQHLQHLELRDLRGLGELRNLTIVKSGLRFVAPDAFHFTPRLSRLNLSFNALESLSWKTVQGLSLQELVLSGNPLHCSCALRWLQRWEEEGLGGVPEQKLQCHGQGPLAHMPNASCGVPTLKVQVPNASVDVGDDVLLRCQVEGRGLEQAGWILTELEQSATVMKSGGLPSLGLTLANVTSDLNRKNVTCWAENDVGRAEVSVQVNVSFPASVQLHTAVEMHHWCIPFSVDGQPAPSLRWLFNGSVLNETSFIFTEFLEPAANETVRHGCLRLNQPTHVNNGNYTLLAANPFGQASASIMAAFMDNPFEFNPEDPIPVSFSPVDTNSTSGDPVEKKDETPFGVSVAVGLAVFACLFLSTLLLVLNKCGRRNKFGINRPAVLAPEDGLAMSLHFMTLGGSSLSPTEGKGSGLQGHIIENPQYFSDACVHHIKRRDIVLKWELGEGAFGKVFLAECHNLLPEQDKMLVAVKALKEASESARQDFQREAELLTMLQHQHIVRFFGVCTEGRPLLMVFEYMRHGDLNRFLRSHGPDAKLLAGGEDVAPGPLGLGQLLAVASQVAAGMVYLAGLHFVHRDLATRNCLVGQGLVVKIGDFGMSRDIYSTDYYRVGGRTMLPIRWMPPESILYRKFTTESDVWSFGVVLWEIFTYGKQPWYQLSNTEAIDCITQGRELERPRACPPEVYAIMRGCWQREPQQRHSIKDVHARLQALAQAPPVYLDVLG
Procedure: TrkA functional activity was measured using a DiscoverX PathHunter assay. In this assay, U2OS cells express the human TrkA receptor as a fusion with the weakly complementing fragment of B-galactosidase, which DiscoverX calls “Prolink (PK)”; additionally, Shc1 is fused with a larger fragment, which is called “Enzyme Acceptor (EA)”. Activation of the TrkA receptor, upon NGF addition, results in the kinase domain being phosphorylated, resulting in subsequent recruitment of Shc1-EA protein. That recruitment results in an active B-galactosidase enzyme that is detected by addition of a chemiluminescent substrate. The human p75^NTR protein was also expressed as a co-receptor for NGF.
All reagents were purchased from DiscoverX, except for the receptor agonists (NGF, BDNF, NT3) which were purchased from Peprotech. Cells were expanded and frozen into cryovials, and stored in the vapor phase of liquid nitrogen, and thawed immediately before use. Thawed cells were added to a 384-well plate at 7500 cells/well, and allowed to incubate overnight. Compound at various concentrations was added the following morning and allowed to incubate on cells for 1 h. Then, NGF was added at a concentration sufficient to elicit ˜80% of a maximal response and allowed to incubate for 3 h at ambient temperature. DiscoverX PathHunter detection reagent was then added and the plate was further incubated for 1 h in the dark. The plate was then read via luminescence on the Perkin Elmer Envision.

`Cc1cc(-n2nc(CC(=O)Nc3ccccn3)cc2NC(=O)c2ccc(C(F)(F)F)c(-c3ccn(C)n3)c2)[nH]n1` [Compound 22, N-{5′-methyl-3-[2-oxo-2-(pyridin-2-ylamino)ethyl]-2′H-1,3′-bipyrazol-5-yl}-3-(1-methyl-1H-pyrazol-3-yl)-4-(trifluoromethyl)benzamide] returned an IC50 of 5.6 nM.

Turning to `NCc1cccc(-c2cc(NC(=O)c3cc(-c4ncccn4)c(C(F)(F)F)cc3F)n(-c3ccc(F)cc3)n2)c1` [Compound 103, N-(3-(3-(aminomethyl)phenyl)-1-(4-fluorophenyl)-1H-pyrazol-5-yl)-2-fluoro-5-(pyrimidin-2-yl)-4-(trifluoromethyl)benzamide], inhibition was half-maximal at 2.4 nM (IC50).

`O=C(Nc1cc(-c2ccncc2)nn1-c1ccccc1)c1cc(-c2cc[nH]n2)c(C(F)(F)F)cc1Cl` [Compound 39, 2-chloro-N-(1-phenyl-3-pyridin-4-yl-1H-pyrazol-5-yl)-5-(1H-pyrazol-3-yl)-4-(trifluoromethyl)benzamide] gave a 50% inhibitory concentration (IC50) of 2.9 nM.

On to `O=C(Nc1cc(-c2ccncc2)nn1-c1ccc(F)cc1)c1ccc(C(F)(F)F)c(-c2cc[nH]c(=O)c2)c1` [Compound 47, N-[1-(4-fluorophenyl)-3-pyridin-4-yl-1H-pyrazol-5-yl]-3-(2-oxo-1,2-dihydropyridin-4-yl)-4-(trifluoromethyl)benzamide], for which the half-inhibitory concentration (IC50) turned out to be 1240 nM.

Consider `O=C(Nc1cc(Cc2n[nH]c(=O)o2)nn1-c1ccc(F)cc1)c1cc(-c2ncccn2)c(C(F)(F)F)cc1F` [Compound 113, 2-fluoro-N-(1-(4-fluorophenyl)-3-((5-oxo-4,5-dihydro-1,3,4-oxadiazol-2-yl)methyl)-1H-pyrazol-5-yl)-5-(pyrimidin-2-yl)-4-(trifluoromethyl)benzamide], for which the IC50 turned out to be 15 nM.

In turn, `Cn1ccc(-c2cc(C(=O)Nc3cc(Cc4ccc(=O)[nH]n4)nn3-c3ccccc3)ccc2C(F)(F)F)n1` [Compound 28, 3-(1-methyl-1H-pyrazol-3-yl)-N-{3-[(6-oxo-1,6-dihydropyridazin-3-yl)methyl]-1-phenyl-1H-pyrazol-5-yl}-4-(trifluoromethyl)benzamide] yielded an IC50 of 6.6 nM.

Compound `CC(O)c1cc(NC(=O)c2cc(-c3ncccn3)c(C(F)(F)F)cc2F)n(-c2ccc(F)cc2)n1` (single isomer, unassigned) [Compound 99, (S or R)-2-fluoro-N-(1-(4-fluorophenyl)-3-(1-hydroxyethyl)-1H-pyrazol-5-yl)-5-(pyrimidin-2-yl)-4-(trifluoromethyl)benzamide] yielded a half-inhibitory concentration (IC50) of 16 nM.

The compound `Cn1ccc(-c2cc(C(=O)Nc3c(-c4ccccc4)nc4n3CCC4)ccc2C(F)(F)F)n1` [Compound 79, 3-(1-methyl-1H-pyrazol-3-yl)-N-(2-phenyl-6,7-dihydro-5H-pyrrolo[1,2-a]imidazol-3-yl)-4-(trifluoromethyl)benzamide] came in with an IC50 of 44 nM.

Consider `Cn1ccc(-c2cc(C(=O)Nc3[nH]ncc3-c3ccccc3)c(Cl)cc2C(F)(F)F)n1` [Compound 45, 2-chloro-5-(1-methyl-1H-pyrazol-3-yl)-N-(4-phenyl-1H-pyrazol-5-yl)-4-(trifluoromethyl)benzamide], for which the IC50 is 7 nM.

The compound `Cc1nc(-c2ccccc2)c(NC(=O)c2ccc(C(F)(F)F)c(-c3ccn(C)n3)c2)s1` [Compound 32, N-(2-methyl-4-phenyl-1,3-thiazol-5-yl)-3-(1-methyl-1H-pyrazol-3-yl)-4-(trifluoromethyl)benzamide] came in with an IC50 of 6 nM.

Compound `Cc1c(Cl)cc(C(=O)Nc2cc(-c3ccncc3)nn2-c2ccccc2)cc1Cl` [Compound 23, 3,5-dichloro-4-methyl-N-(1-phenyl-3-pyridin-4-yl-1H-pyrazol-5-yl)benzamide] gave a concentration for half-maximal inhibition (IC50) of 670 nM.

Compound `NC(=O)c1ccnc(-c2cc(NC(=O)c3cc(-c4ncccn4)c(C(F)(F)F)cc3F)n(-c3ccc(F)cc3)n2)n1` [Compound 84, 2-(5-(2-fluoro-5-(pyrimidin-2-yl)-4-(trifluoromethyl)benzamido)-1-(4-fluorophenyl)-1H-pyrazol-3-yl)pyrimidine-4-carboxamide] gave an IC50 of 4.9 nM.

For `Cn1ccc(-c2cc(C(=O)Nc3cn[nH]c3-c3ccccc3)ccc2C(F)(F)F)n1` [Compound 18, 3-(1-methyl-1H-pyrazol-3-yl)-N-(5-phenyl-1H-pyrazol-4-yl)-4-(trifluoromethyl)benzamide], half-maximal inhibition (IC50) was put at 18 nM.

The compound `Cc1cc(-n2nc(C(=O)N(C)C)cc2NC(=O)c2ccc(C(F)(F)F)c(-c3ccn(C)n3)c2)[nH]n1` [Compound 7, N,N,5′-trimethyl-5-({[3-(1-methyl-1H-pyrazol-3-yl)-4-(trifluoromethyl)phenyl]carbonyl}amino)-2′H-1,3′-bipyrazole-3-carboxamide] had a 50% inhibitory concentration (IC50) of 32 nM.

As for `NC(=O)c1ccc(-c2cc(NC(=O)c3ccc(C(F)(F)F)cc3Cl)n(-c3ccccc3)n2)nc1` [Compound 4, 6-[5-({[2-chloro-4-(trifluoromethyl)phenyl]carbonyl}amino)-1-phenyl-1H-pyrazol-3-yl]pyridine-3-carboxamide], half-maximal inhibition (IC50) was put at 48 nM.

As for `Cc1nc(-c2nc(C)n(C)c2NC(=O)c2ccc(C(F)(F)F)c(-c3ccn(C)n3)c2)cs1` [Compound 53, N-[1,2-dimethyl-4-(2-methyl-1,3-thiazol-4-yl)-1H-imidazol-5-yl]-3-(1-methyl-1H-pyrazol-3-yl)-4-(trifluoromethyl)benzamide], the IC50 came to 590 nM.

Regarding `Cn1ccc(-c2cc(C(=O)Nc3c4c(nn3-c3ccc(F)cc3)CCC4)ccc2C(F)(F)F)n1` [Compound 82, N-[2-(4-fluorophenyl)-2,4,5,6-tetrahydrocyclopenta[c]pyrazol-3-yl]-3-(1-methyl-1H-pyrazol-3-yl)-4-(trifluoromethyl)benzamide], the 50% inhibitory concentration (IC50) came to 33 nM.

The compound `Cn1ccc(-c2cc(C(=O)Nc3cc(-c4ccncc4)nn3-c3cc(C(F)(F)F)n[nH]3)ccc2Cl)n1` [Compound 40, 4-chloro-3-(1-methyl-1H-pyrazol-3-yl)-N-[3-pyridin-4-yl-5′-(trifluoromethyl)-2′H-1,3′-bipyrazol-5-yl]benzamide] came in with an IC50 of 3.2 nM.

Compound `Cn1ccc(-c2cc(C(=O)Nc3oncc3-c3ccccc3)ccc2C(F)(F)F)n1` [Compound 17, 3-(1-methyl-1H-pyrazol-3-yl)-N-(4-phenylisoxazol-5-yl)-4-(trifluoromethyl)benzamide] showed a half-maximal inhibitory concentration (IC50) of 170 nM.

`Cn1ccc(-c2cc(C(=O)Nc3cc(Cn4cnnn4)nn3-c3ccccc3)ccc2C(F)(F)F)n1` [Compound 66, 3-(1-methyl-1H-pyrazol-3-yl)-N-[1-phenyl-3-(1H-tetrazol-1-ylmethyl)-1H-pyrazol-5-yl]-4-(trifluoromethyl)benzamide]: the IC50 came to 2.3 nM.

`Cn1ccc(-c2cc(C(=O)Nc3cc(-c4ccc(=O)[nH]n4)nn3-c3ccccc3)ccc2OC(F)(F)F)n1` [Compound 71, 3-(1-methyl-1H-pyrazol-3-yl)-N-[3-(6-oxo-1,6-dihydropyridazin-3-yl)-1-phenyl-1H-pyrazol-5-yl]-4-(trifluoromethoxy)benzamide] had a half-inhibitory concentration (IC50) of 89 nM.

Turning to `Cn1ccc(-c2cc(C(=O)Nc3snnc3-c3ccccc3)ccc2C(F)(F)F)n1` [Compound 19, 3-(1-methyl-1H-pyrazol-3-yl)-N-(4-phenyl-1,2,3-thiadiazol-5-yl)-4-(trifluoromethyl)benzamide], half-maximal inhibition (IC50) was put at 2800 nM.

`Cn1ccc(-c2cc(C(=O)Nc3cnoc3-c3ccccc3)ccc2C(F)(F)F)n1` [Compound 37, 3-(1-methyl-1H-pyrazol-3-yl)-N-(5-phenylisoxazol-4-yl)-4-(trifluoromethyl)benzamide] came in with a 50% inhibitory concentration (IC50) of 180 nM.

In turn, `O=C(Nc1cc(-c2ccncc2)nn1-c1ccc(F)cc1)c1ccc(C(F)(F)F)c(-c2cccnc2)c1` [Compound 35, N-[1-(4-fluorophenyl)-3-pyridin-4-yl-1H-pyrazol-5-yl]-3-pyridin-3-yl-4-(trifluoromethyl)benzamide] registered an IC50 of 1700 nM.

Compound `Cn1ccc(-c2cc(C(=O)Nc3cc(Cc4nnnn4C)nn3-c3ccc(F)cc3)c(F)cc2C(F)(F)F)n1` [Compound 102, 2-fluoro-N-(1-(4-fluorophenyl)-3-((1-methyl-1H-tetrazol-5-yl)methyl)-1H-pyrazol-5-yl)-5-(1-methyl-1H-pyrazol-3-yl)-4-(trifluoromethyl)benzamide] yielded a concentration for half-maximal inhibition (IC50) of 0.4 nM.

Turning to `Cc1nc(-c2ccccc2)c(NC(=O)c2ccc(C(F)(F)F)c(-c3ccn(C)n3)c2)[nH]1` [Compound 13, N-(2-methyl-4-phenyl-1H-imidazol-5-yl)-3-(1-methyl-1H-pyrazol-3-yl)-4-(trifluoromethyl)benzamide], the 50% inhibitory concentration (IC50) stood at 38 nM.

Compound `O=C(Nc1cc(-c2ncccn2)nn1-c1ccc(F)cc1)c1cc(-c2cc[nH]n2)c(C(F)(F)F)cc1F` [Compound 64, 2-fluoro-N-[1-(4-fluorophenyl)-3-pyrimidin-2-yl-1H-pyrazol-5-yl]-5-(1H-pyrazol-3-yl)-4-(trifluoromethyl)benzamide] returned a 50% inhibitory concentration (IC50) of 22 nM.

`Cn1ccc(-c2cc(C(=O)Nc3cc(Cc4cc[nH]n4)nn3-c3ccc(F)cc3)ccc2C(F)(F)F)n1` [Compound 96, N-(3-((1H-pyrazol-3-yl)methyl)-1-(4-fluorophenyl)-1H-pyrazol-5-yl)-3-(1-methyl-1H-pyrazol-3-yl)-4-(trifluoromethyl)benzamide] displayed an IC50 of 3.7 nM.

As for `Cc1nc(-c2ccncc2)c(NC(=O)c2ccc(C(F)(F)F)c(-c3ccn(C)n3)c2)n1C` [Compound 52, N-(1,2-dimethyl-4-pyridin-4-yl-1H-imidazol-5-yl)-3-(1-methyl-1H-pyrazol-3-yl)-4-(trifluoromethyl)benzamide], the IC50 came to 2100 nM.

`O=C(Nc1cc(-c2ccncc2)nn1-c1ccccc1)c1ccc(C(F)(F)F)c(-n2cccn2)c1` [Compound 24, N-(1-phenyl-3-pyridin-4-yl-1H-pyrazol-5-yl)-3-(1H-pyrazol-1-yl)-4-(trifluoromethyl)benzamide] came in with a concentration for half-maximal inhibition (IC50) of 21 nM.

Regarding `Cn1cc(Cc2cc(NC(=O)c3ccc(C(F)(F)F)c(-c4ccn(C)n4)c3)n(-c3ccc(F)cc3)n2)cn1` [Compound 90, N-(1-(4-fluorophenyl)-3-((1-methyl-1H-pyrazol-4-yl)methyl)-1H-pyrazol-5-yl)-3-(1-methyl-1H-pyrazol-3-yl)-4-(trifluoromethyl)benzamide], the concentration for half-maximal inhibition (IC50) is 3.6 nM.
